Source: US11033577B2, “Polymer conjugate of hexa-coordinated platinum complex” (priority 2015, dated 2021)

How the values were obtained:
[1] = tested on: Human stomach cancer 4-1ST; assay: Antitumor Test 2, human stomach cancer 4-1ST transplanted mouse; type: in vivo, BALB/cA-nu/nu mouse; details: caudal vein
From the text: (§1) Human stomach cancer 4-1ST was subcultured subcutaneously in a BALB/cA-nu/nu mouse (hereinafter, nude mouse). Human stomach cancer 4-1ST was obtained from the Central Institute for Experimental Animals.
Human stomach cancer 4-1ST was collected subcutaneously from a nude mouse and was cut into blocks each measuring about 3 mm on each side. The tumor blocks thus obtained were transplanted subcutaneously on the dorsal side of nude mice using a trocar. On the 17th day after transplantation, where the average tumor volume had reached about 100 to 200 mm^3, various drugs were administered through the caudal vein. The use and dose (in terms of drug) of the various administered drugs are as follows. In regard to the Example 11 compound, the compound was dissolved in a 5% glucose injectable solution, and the solution was administered once at a dose of 15 mg/kg or 7.5 mg/kg. In regard to the Example 12 compound, the compound was dissolved in a 5% glucose injectable solution, and the solution was administered once at a dose of 30 mg/kg or 15 mg/kg. As a control drug, l-OHP was administered once at a dose of 18 mg/kg, and cisplatin was administered once at a dose of 10 mg/kg. Regarding the amounts of administration of l-OHP and cisplatin and the high amounts of administration of the various Example compounds, the maximum tolerable doses (MTD doses) were employed for all of the compounds. After the administration, the major axis (L) and the minor axis (W) of the tumor were measured over time using calipers, and the tumor volume (L×W×W×0.5) was calculated. The test was performed by employing four animals per group for all of a non-administered group as well as various drug-administered groups. During the period from the initiation of administration to the 21st day after administration, the relative tumor volume (T/C (%)) of each drug-administered group based on the relative tumor volume of a non-drug-administered group as 100 was calculated by the following formula as an index for the antitumor effect. T/C(%)=Relative tumor volume of administered group/relative tumor volume of non-administered group×100 Formula: […]

[2] = tested on: Human stomach cancer 4-1ST; assay: Antitumor Test 1, human stomach cancer 4-1ST transplanted mouse; type: in vivo, BALB/cA-nu/nu mouse; details: caudal vein
From the text: as §1
Human stomach cancer 4-1ST was collected subcutaneously from a nude mouse and was finely cut into blocks each measuring about 3 mm on each side. The tumor blocks thus obtained were subcutaneously transplanted into the dorsal side of nude mice using a trocar. On the 15th day after transplantation, where the average tumor volume had reached about 100 to 200 mm^3, various drugs were administered through the caudal vein. The use and dose (in terms of drug) of the various administered drugs are as follows. In regard to the Example 1 compound, the compound was dissolved in a 5% glucose injectable solution, and the solution was administered once at a dose of 25 mg/kg or 12.5 mg/kg. In regard to the Example 2 compound, the compound was dissolved in a 5% glucose injectable solution, and the solution was administered once at a dose of 25 mg/kg or 12.5 mg/kg. In regard to the Example 3 compound, the compound was dissolved in a 5% glucose injectable solution, and the solution was administered once at a dose of 20 mg/kg or 10 mg/kg. In regard to the Example 4 compound, the compound was dissolved in a 5% glucose injectable solution, and the solution was administered once at a dose of 20 mg/kg or 10 mg/kg. In regard to the Example 5 compound, the compound was dissolved in a 5% glucose injectable solution, and the solution was administered once at a dose of 20 mg/kg or 10 mg/kg. As a control drug, l-OHP was administered once at a dose of 20 mg/kg, and cisplatin was administered once at a dose of 10 mg/kg. Regarding the amounts of administration of l-OHP and cisplatin and the high amounts of administration of the various Example compounds, the maximum tolerable doses (MTD doses) were employed for all of the compounds. After the administration, the major axis (L) and the minor axis (W) of the tumor were measured over time using calipers, and the tumor volume (L×W×W×0.5) was calculated. The test was performed by employing four animals per group for all of a non-administered group as well as various drug-administered groups. During the period from the initiation of administration to the 21st day after administration, the relative tumor volume (T/C (%)) of each drug-administered group based on the relative tumor volume of a non-drug-administered group as 100 was calculated by the following formula as an index for the antitumor effect. T/C(%)=Relative tumor volume of administered group/relative tumor volume of non-administered group×100 Formula: […]

## N.N.[Cl][Pt][Cl] [Cisplatin, cisplatin]
[1]; 10 mg/kg once, day 0
  T/C (%) in various numbers of days after administration: 100%
[1]; 10 mg/kg once, day 4
  T/C (%) in various numbers of days after administration: 77%
[1]; 10 mg/kg once, day 7
  T/C (%) in various numbers of days after administration: 43%
[1]; 10 mg/kg once, day 11
  T/C (%) in various numbers of days after administration: 32%
[1]; 10 mg/kg once, day 14
  T/C (%) in various numbers of days after administration: 36%
[1]; 10 mg/kg once, day 18
  T/C (%) in various numbers of days after administration: 37%
[1]; 10 mg/kg once, day 21
  T/C (%) in various numbers of days after administration: 42%
[2]; 10 mg/kg once, day 0
  T/C (%) in various numbers of days after administration: 100%
[2]; 10 mg/kg once, day 3
  T/C (%) in various numbers of days after administration: 68%
[2]; 10 mg/kg once, day 5
  T/C (%) in various numbers of days after administration: 50%
[2]; 10 mg/kg once, day 7
  T/C (%) in various numbers of days after administration: 33%
[2]; 10 mg/kg once, day 10
  T/C (%) in various numbers of days after administration: 33%
[2]; 10 mg/kg once, day 14
  T/C (%) in various numbers of days after administration: 29%
[2]; 10 mg/kg once, day 17
  T/C (%) in various numbers of days after administration: 26%
[2]; 10 mg/kg once, day 21
  T/C (%) in various numbers of days after administration: 22%

## O=C1[O][Pt]2([NH][C@@H]3CCCC[C@H]3[NH]2)[O]C1=O [l-OHP, oxaliplatin]
[1]; 18 mg/kg once, day 0
  T/C (%) in various numbers of days after administration: 100%
[1]; 18 mg/kg once, day 4
  T/C (%) in various numbers of days after administration: 84%
[1]; 18 mg/kg once, day 7
  T/C (%) in various numbers of days after administration: 52%
[1]; 18 mg/kg once, day 11
  T/C (%) in various numbers of days after administration: 50%
[1]; 18 mg/kg once, day 14
  T/C (%) in various numbers of days after administration: 50%
[1]; 18 mg/kg once, day 18
  T/C (%) in various numbers of days after administration: 60%
[1]; 18 mg/kg once, day 21
  T/C (%) in various numbers of days after administration: 57%
[2]; 20 mg/kg once, day 0
  T/C (%) in various numbers of days after administration: 100%
[2]; 20 mg/kg once, day 3
  T/C (%) in various numbers of days after administration: 72%
[2]; 20 mg/kg once, day 5
  T/C (%) in various numbers of days after administration: 57%
[2]; 20 mg/kg once, day 7
  T/C (%) in various numbers of days after administration: 49%
[2]; 20 mg/kg once, day 10
  T/C (%) in various numbers of days after administration: 49%
[2]; 20 mg/kg once, day 14
  T/C (%) in various numbers of days after administration: 45%
[2]; 20 mg/kg once, day 17
  T/C (%) in various numbers of days after administration: 46%
[2]; 20 mg/kg once, day 21
  T/C (%) in various numbers of days after administration: 41%
